Measurements taken from PMC9693575, “Isopropyl Amino Acid Esters Ionic Liquids as Vehicles for Non-Steroidal Anti-Inflammatory Drugs in Potential Topical Drug Delivery Systems with Antimicrobial Activity” (International Journal of Molecular Sciences, 2022).
In brackets after ≈: the same amount, converted by molar mass. Like-named read-outs stand apart in the source and are kept apart here.

What was measured:
[1] = system: Micrococcus Luteus; test: Disc diffusion antimicrobial susceptibility test, Micrococcus luteus; format: cell-based; parameters: key to Inhibition diameter: -: no growth of the organism; conditions: for zone of inhibition at 400000 µg/mL: solution transferred to disc 400 mg cm^−3; for zone of inhibition at 600000 µg/mL: solution transferred to disc 600 mg cm^−3; for zone of inhibition at 800000 µg/mL: solution transferred to disc 800 mg cm^−3
[2] = system: Escherichia coli; test: Disc diffusion antimicrobial susceptibility test, Escherichia coli; format: cell-based; parameters: key to Inhibition diameter: -: no growth of the organism
Procedure: (§1) The plates were incubated for 24 h at 37 °C.

[3] = pKa / pKB by potentiometric acid-base titration and formation constant log(KS)
Procedure: Determination of formation constant pKs
Zabrze, Poland). For the measurement of pKA acids, 0.1 M NaOH was used. In order to
ester hydrochloride, HCl aqueous solution, was added in an amount that allowed reach-
After that, an acid-base titration was made out by adding dropwise 5 mM

[4] = n-octanol-water partition coefficient (logP), shake flask method; format: physicochemical
[5] = system: Staphylococcus epidermidis; test: Disc diffusion antimicrobial susceptibility test, Staphylococcus epidermidis; format: cell-based; parameters: key to Inhibition diameter: -: no growth of the organism
Procedure: as §1

[6] = Thermogravimetric analysis (thermal stability)
Procedure: The thermal stabilities of the obtained NSAIDs isopropyl ester amino acid salts were investigated. […] The beginning of thermal degradation was evaluated based on the value of onset of the TG curve, which occurs in the first phase of the process. […]
Thermogravimetric analysis (TG)
Thermogravimetric analysis was carried out using Netzsch Proteus Thermal Analy- […]
Samples of 5–8 mg were loaded in Al2O3 […]
ment was performed in an air atmosphere (25 cm3min−1) with nitrogen flow (10 cm3min−1) […]
Differential scanning calorimetry (DSC)
Phase transformation temperatures were determined on a PerkinElmer DSC-7 (Rot-gau, Germany). The samples of 3–5 mg were loaded on the aluminum pan with a crimped lid. Measurements were carried out in a nitrogen atmosphere (20 cm3 min-1). The rate of heating/cooling was 5°C min-1. […]
tained for 30 min inside the furnace, then cooled to 0°C to condition the sample and the crucible. After that, heating was conducted to the specified temperature, followed by cool-ing. Unless otherwise stated, two complete cycles of heating and cooling were performed.
The specified maximum temperature was individual for each compound, determined from TG analysis, and it was at least 10°C lower than the onset decomposition tempera-ture. Temperatures reported from DSC data are curve peaks, the melting points being endothermic upon heating and crystallization point being exothermic upon cooling. Lead, indium, tin, and zinc were used as standards to calibrate the temperature. Indium was used for enthalpy measurement calibration. […]

[7] = physchem
Source text: This study aims to compare the influence of amino acid structure on the physicochemical properties of NSAID salts with the isopropyl ester of amino acids.

[8] = Micrococcus luteus, 24 h, read-out: Inhibition diameter
[9] = solution transferred to disc 25 mg cm^−3
[10] = solution transferred to disc 50 mg cm^−3
[11] = solution transferred to disc 100 mg cm^−3
[12] = solution transferred to disc 200 mg cm^−3
[13] = solution transferred to disc 400 mg cm^−3
[14] = solution transferred to disc 600 mg cm^−3
[15] = solution transferred to disc 1000 mg cm^−3

CC(C(=O)O)c1cccc(C(=O)c2ccccc2)c1 (racemic) [KETO, (R,S)-ketoprofen, reference compound]
zone of inhibition at 25000 µg/mL ([1]; Micrococcus luteus, 24 h, solution transferred to disc 25 mg cm^−3, read-out: Inhibition diameter): 8.3 ± 0.3 mm | zone of inhibition at 50000 µg/mL ([1]; Micrococcus luteus, 24 h, solution transferred to disc 50 mg cm^−3, read-out: Inhibition diameter): 9.6 ± 0.2 mm | zone of inhibition at 100000 µg/mL ([1]; Micrococcus luteus, 24 h, solution transferred to disc 100 mg cm^−3, read-out: Inhibition diameter): 10.2 ± 0.2 mm | zone of inhibition at 200000 µg/mL ([1]; Micrococcus luteus, 24 h, solution transferred to disc 200 mg cm^−3, read-out: Inhibition diameter): 11.1 ± 0.4 mm | zone of inhibition at 400000 µg/mL [1, 8]: 12.5 ± 0.2 mm | zone of inhibition at 600000 µg/mL [1, 8]: 13.3 ± 0.2 mm | zone of inhibition at 800000 µg/mL [1, 8]: 14.2 ± 0.1 mm | Inhibition diameter [2, 9]: - | Inhibition diameter [2, 10]: - | Inhibition diameter [2, 11]: - | Inhibition diameter [2, 12]: - | Inhibition diameter [2, 13]: - | Inhibition diameter [2, 14]: - | Inhibition diameter [2, 15]: - | pKa [3]: 4.11 | logP ([4]; n-octanol-water, shake flask, read-out: LogP): 1.577 ± 0.01 | Inhibition diameter [5, 9]: - | Inhibition diameter [5, 10]: - | Inhibition diameter [5, 11]: - | Inhibition diameter [5, 12]: - | Inhibition diameter [5, 13]: - | Inhibition diameter [5, 14]: - | Inhibition diameter ([5]; solution transferred to disc 800 mg cm^−3): - | Inhibition diameter [5, 15]: -

O=C(O)c1ccccc1O [SA, salicylic acid, reference compound]
zone of inhibition at 400000 µg/mL [1, 8]: 7.4 ± 0.4 mm | zone of inhibition at 600000 µg/mL [1, 8]: 8.7 ± 0.8 mm | zone of inhibition at 800000 µg/mL [1, 8]: 9.4 ± 0.8 mm | Inhibition diameter [1, 9]: - | Inhibition diameter [1, 10]: - | Inhibition diameter [1, 11]: - | Inhibition diameter [1, 12]: - | TTGonset, the onset of the thermal degradation [6]: 146.2 °C | TDTGmax, maximum decomposition temperature ([6]; DTG, air atmosphere, 10 °C min−1): 198.8 °C | zone of inhibition at 200000 µg/mL ([2]; Escherichia coli, 24 h, solution transferred to disc 200 mg cm^−3, read-out: Inhibition diameter): 6.1 ± 0.1 mm | zone of inhibition at 400000 µg/mL ([2]; Escherichia coli, 24 h, solution transferred to disc 400 mg cm^−3, read-out: Inhibition diameter): 6.4 ± 0.1 mm | zone of inhibition at 600000 µg/mL ([2]; Escherichia coli, 24 h, solution transferred to disc 600 mg cm^−3, read-out: Inhibition diameter): 11 ± 0.8 mm | Inhibition diameter [2, 9]: - | Inhibition diameter [2, 10]: - | Inhibition diameter [2, 11]: - | logP [4]: 1.32 ± 0.018 | concentration from which the inhibitory effect was observed ([5]; S. epidermidis): ≥ 400 mg cm^−3 | zone of inhibition at 400000 µg/mL ([5]; Staphylococcus epidermidis, 24 h, solution transferred to disc 400 mg cm^−3, read-out: Inhibition diameter): 6.2 ± 0.1 mm | zone of inhibition at 600000 µg/mL ([5]; Staphylococcus epidermidis, 24 h, solution transferred to disc 600 mg cm^−3, read-out: Inhibition diameter): 7 ± 0.2 mm | zone of inhibition at 800000 µg/mL ([5]; Staphylococcus epidermidis, 24 h, solution transferred to disc 800 mg cm^−3, read-out: Inhibition diameter): 8.6 ± 0.3 mm | Inhibition diameter [5, 9]: - | Inhibition diameter [5, 10]: - | Inhibition diameter [5, 11]: - | Inhibition diameter [5, 12]: - | Solubility in Water, as active substance [7]: 3.795 ± 0.004 gAS dm^−3 | Solubility in Phosphate Buffer pH = 5.4, as active substance ([7]; pH 5.4): 3.862 ± 0.005 gAS dm^−3 | solubility thermodynamic ([7]; pH 5.4, aqueous buffer): 3862 ± 5 µg/mL (≈ 28 mM) | Solubility in Phosphate Buffer pH = 7.4, as active substance ([7]; pH 7.4): 5.757 ± 0.024 gAS dm^−3 | solubility thermodynamic ([7]; pH 7.4, aqueous buffer): 5757 ± 24 µg/mL (≈ 41.7 mM) | solubility thermodynamic ([7]; water): 3795 ± 4 µg/mL (≈ 27.5 mM)
